We go through eight compounds from PMC9823331, “Permeability of New Antifungal Fluconazole Derivatives through a Lipophilic Membrane: Experiment and Modeling” (Molecules, 2023).

On the set-up of series [1]: method as in PMID 33713781. To be noted: cited from earlier work.
Series [2] deals with C. parapsilosis ATCC 22019. More on the design: method as in earlier work. To be noted: cited from earlier work.
A short description of series [3]: Distribution in the 1-octanol/buffer pH 7.4 system. The note with it: calculated by Henderson–Hasselbalch equation. The class given is physicochemical.
A short description of series [4]: Membrane permeability assay through the PermeaPad barrier (Franz diffusion cell). The class given is in vitro ADME. The note with it: buffer pH 7.4, 37 °C, values are Papp multiplied by 10^5, read-out: Papp⋅10^5, apparent permeability coefficient. An excerpt: A vertical-type Franz diffusion cell (PermeGear, Inc., Hellertown, PA, USA) was used to measure the permeability of the studied compounds. The biomimetic lipophilic PermeaPad barrier (PHABIOC, Germany, www.permeapad.com, accessed on 20 May 2021) fully described by di Cagno et al. was employed in the present study to simulate the morphology and properties of the biologic membranes. This membrane was chosen because of its advantageous properties and user friendliness. PermeaPad belongs to cell-free permeation systems. It is composed of two cellulose membranes with a thin layer of phosphatidylcholine (S-100) between them. […]
Firstly, the donor chamber was filled with the donor solution of the tested compound in buffer pH 7.4, then the PermeaPad barrier was mounted between the donor and receptor parts of the diffusion cell (0.785 cm^2 effective surface area) carefully avoiding the air bubbles (which can minimize the active area of the membrane, thus, slowing the permeation). […] The sample solution concentrations were measured spectrophotometrically (Spectramax 190; Molecular Devices, Molecular Devices Corporation, San Jose, CA, USA) in 96-well UV black plates (Costar) at λ = 270 nm. […]
The apparent permeability coefficient (Papp) was calculated by normalizing the slope (J) by the compound concentration in the donor solution (C0) by the equation:(9) Papp=J/C0 […]

Turning to `Cc1ccc(-n2c(=S)sc3c(=O)n(CC(O)(Cn4cncn4)c4ccc(F)cc4F)cnc32)cc1` (centres unmarked) [I, N-[2-(2,4-difluorophenyl)-2-hydroxy-3-(1,2,4-triazol-1-yl)propyl]-3-(p-tolyl)-2-thioxo-thiazolo[4,5-d]pyrimidin-7-one], the “logKoct/buf, apparent distribution coefficient in the 1-octanol/buffer pH 7.4 system” value in series [1] is 0.79. Further, the “log(1/MIC)” value in series [2] is given as -1.51.

In the case of `COc1ccccc1-n1c(=S)sc2c(=O)n(CC(O)(Cn3cncn3)c3ccc(F)cc3F)cnc21` (centres unmarked) [II, N-[2-(2,4-difluorophenyl)-2-hydroxy-3-(1,2,4-triazol-1-yl)propyl]-3-(2-methoxyphenyl)-2-thioxo-thiazolo[4,5-d]pyrimidin-7-one], the “logK0, distribution coefficient for the uncharged particles” value (“logK0, distribution coefficient” for short) in series [3] was -4.66. Moreover, the “log(1/MIC)” value in series [2] is on record as -0.90.

`O=c1c2sc(=S)n(-c3ccc(F)cc3)c2ncn1CC(O)(Cn1cncn1)c1ccc(F)cc1F` (centres unmarked) [III, N-[2-(2,4-difluorophenyl)-2-hydroxy-3-(1,2,4-triazol-1-yl)propyl]-3-(4-fluorophenyl)-2-thioxo-thiazolo[4,5-d]pyrimidin-7-one]: in series [3], the “logK0, distribution coefficient” value is listed as -4.76. For the same compound, the “log(1/MIC)” value in series [2] is -1.51.

With `Cc1ccc(-n2c(=S)sc3c(=O)n(CC(=O)NCC(O)(Cn4cncn4)c4ccc(F)cc4F)cnc32)cc1` (centres unmarked) [IV, N-[2-(2,4-difluorophenyl)-2-hydroxy-3-(1,2,4-triazol-1-yl)propyl]-2-[7-oxo-3-(p-tolyl)-2-thioxo-thiazolo[4,5-d]pyrimidin-6-yl]acetamide], the “logK0, distribution coefficient” value in series [3] is -4.68. The “logKoct/buf, apparent distribution coefficient in the 1-octanol/buffer pH 7.4 system” value in series [1] was 1.27. Moreover, the “log(1/MIC)” value in series [2] is given as -1.51.

Take `O=C(Cn1cnc2c(sc(=S)n2-c2ccc(Cl)cc2)c1=O)NCC(O)(Cn1cncn1)c1ccc(F)cc1F` (centres unmarked) [V, N-[2-(2,4-difluorophenyl)-2-hydroxy-3-(1,2,4-triazol-1-yl)propyl]-2-[3-(4-chlorophenyl)-7-oxo-2-thioxo-thiazolo[4,5-d]pyrimidin-6-yl]-acetamide]: in series [3], the “logK0, distribution coefficient” value is reported as -4.69. Further, the “log(1/MIC)” value in series [2] is given as -1.51.

For the compound `O=C(Cn1cnc2c(sc(=S)n2-c2ccc(F)cc2)c1=O)NCC(O)(Cn1cncn1)c1ccc(F)cc1F` (centres unmarked) [VI, N-[2-(2,4-difluorophenyl)-2-hydroxy-3-(1,2,4-triazol-1-yl)propyl]-2-[3-(4-fluorophenyl)-7-oxo-2-thioxo-thiazolo[4,5-d]pyrimidin-6-yl]acetamide], in series [3], the “logK0, distribution coefficient” value was -4.72. Also, the “log(1/MIC)” value in series [2] was -1.51.

For the compound `COc1ccccc1-n1c(=S)sc2c(=O)n(CC(=O)NCC(O)(Cn3cncn3)c3ccc(F)cc3F)cnc21` (centres unmarked) [VII, N-[2-(2,4-difluorophenyl)-2-hydroxy-3-(1,2,4-triazol-1-yl)propyl]-2-[3-(2-methoxyphenyl)-7-oxo-2-thioxo-thiazolo[4,5-d]pyrimidin-6-yl]acetamide], the “logK0, distribution coefficient” value in series [3] is recorded as -4.73. Also, in series [1], the “logKoct/buf, apparent distribution coefficient in the 1-octanol/buffer pH 7.4 system” value is recorded as 0.80. In series [2], the “log(1/MIC)” value is on record as -1.51.

For the compound `Cc1ccc(-n2c(=S)sc3c(=O)n(CCN4CCN(CC(O)(Cn5cncn5)c5ccc(F)cc5F)CC4)cnc32)cc1` (centres unmarked) [XII, N-[2-[4-[2-(2,4-difluorophenyl)-2-hydroxy-3-(1,2,4-triazol-1-yl)propyl]piperazin-1-yl]ethyl]-2-methyl-3-(p-tolyl)-2-thioxo-thiazolo[4,5-d]pyrimidin-7-one], the Papp at 5 h in series [4] came out at 18.8 ± 0.42 ×10⁻⁶ cm/s. Also, the “logK0, distribution coefficient” value in series [3] was -3.95. In series [1], the “logKoct/buf, apparent distribution coefficient in the 1-octanol/buffer pH 7.4 system” value is listed as 2.90. The “log(1/MIC)” value in series [2] is recorded as 0.30.

What is called Papp is the rate of passage across a membrane or cell layer, normalised by area and donor concentration.
